In patent US20250281453A1, “COMBINATION THERAPIES COMPRISING QTX125” (QUIMATRYX, S.L., priority 2022, published 2025):

Columns and labels:
Type in all cases: cell-based
[1] = tested on: HCT-116 colonic cancer cells; experiment: Cell viability, ALAMAR blue assay, monotherapy; conditions: for EC50: 72 h, read-out: EC50 dose of monotherapy
Method: (§1) In brief, HCT-116, MiaPaCa-2 and Panc-1 cells were thawed in high glucose DMEM (Sigma D5796) with 10% heat-inactivated Foetal Calf Serum (FCS) (PAA, A15-101)). Hep-G2 and SK-Hep1 cells were thawed in Minimum Essential Media (MEM) (Sigma M2279) with 1% non-essential amino acids (Sigma M7145), 2 mM Glutamine (Sigma G7513) and 10% FCS. SK-OV-3 cells were thawed in McCoy's 5A medium (Sigma, M8403) with 15% FCS. All cells were passaged by washing once in cation-free dPBS (Sigma, D1408), and incubated for 3 minutes with trypsin ([0.5 μg/ml]/EDTA [0.2 μg/ml] (Sigma, T4174) in dPBS). Passage was completed at 37° C., and cells were transferred to the appropriate media. Prior to seeding at defined cell density, cells were recovered in medium, centrifuged and resuspended for counting.
(§2) To prepare cells for viability assays, cells were transferred into 96 well tissue culture plates (Cultek), and resuspended in 100 µL at the following densities: 10,000 cells/well (Hep-G2 and MiaPaCa-2), 5000 cells/well (Panc-1 and SK-OV-3) or 3000 cells/well (HCT-116). Following 24 hours of incubation, media was removed and replaced with 100 µL media spiked with QTX125 and the test chemotherapeutic agents. Stock solutions for the agents used in this study are shown below in Table 1. Cells were incubated for a further 72 hours before cell viability was assessed using both ALAMAR® and hexosaminidase assays.
(§3) For the ALAMAR® blue assay, media containing QTX125 and the test chemotherapeutic agents was removed, and cells were stained using ALAMAR® blue (BioSource DAL 1100) for 4 hours at 37° C., following the manufacturer's instructions. Relative fluorescent intensity was measured using a Cytofluor® plate reader (Millipore) at 535/590 nm (Excitation/emission). This measure directly correlates with the number of viable cells present in each well.
(§4) A number of appropriate control samples were included. First, absorbance values measured in reagent ‘blank’ wells (containing cell culture medium and colorimetric agent only) were subtracted from ‘test’ sample-containing wells. ‘Blank’ absorbance values were routinely between 5 and 10% of the values recorded in test wells. Absorbance values recorded in test wells were then compared against wells containing (i) cells stimulated with QTX125 only; (ii) cells stimulated with sorafenib, gemcitabine or bortezomib only and/or (iii) unstimulated cells, as appropriate.
(§5) Control values were normalised to 100% and percentage (%) viability was calculated. Data were used to plot log dose-response curves using a sigmoid dose-response (variable slope) equation. EC50 values were obtained using Equation 1, where ‘X’ is the logarithmic concentration; ‘Y’ is the response output and it is assumed that Y starts at bottom of the graph and reaches the top with an overall sigmoid shape.
(§6) Prior to assessing the oncolytic efficacy of QTX125-containing combination therapies, the oncolytic effect of each test agent was assessed in isolation. Dose-response curves were produced by serial dilution (1:1), thereby allowing monotherapy EC50 values to be calculated.
(§7) Chemotherapeutic agents were added to wells at a starting concentration of 100 μM. However, it was quickly determined that it was not possible to use this range for all chemotherapeutic agents tested. An optimization study was therefore completed to identify suitable maximum (‘high’) doses for each agent and in each individual cell line.

[2] = tested on: Hep-G2 hepatic cancer cells; experiment: Cell viability, ALAMAR blue assay, monotherapy; conditions: for EC50: HepG2, 72 h, read-out: EC50 dose of monotherapy; for percentage (%) cell viabilities: 72 hours of high-dose monotherapy (Table 2: QTX125 5, sorafenib 100, gemcitabine 100, bortezomib 1 μM)
Method: as §1, §2, §3, §4, §5, §6, §7

[3] = tested on: MiaPaCa-2 pancreatic cancer cells; experiment: Cell viability, ALAMAR blue assay, monotherapy; conditions: for EC50: MIA PaCa-2, 72 h, 72 h, read-out: EC50 dose of monotherapy; for percentage (%) cell viabilities: 72 hours of high-dose monotherapy (Table 2: QTX125 100, sorafenib 100, gemcitabine 100, bortezomib 1 μM)
Method: as §1, §2, §3, §4, §5, §6, §7

[4] = tested on: Panc-1 pancreatic cancer cells; experiment: Cell viability, ALAMAR blue assay, monotherapy; conditions: for EC50: 72 h, read-out: EC50 dose of monotherapy
Method: as §1, §2, §3, §4, §5, §6, §7

[5] = tested on: SK-OV-3 ovarian cancer cells; experiment: Cell viability, ALAMAR blue assay, monotherapy; conditions: for EC50: 72 h, read-out: EC50 dose of monotherapy
Method: as §1, §2, §3, §4, §5, §6, §7

[6] = tested on: HCT-116 colonic cancer cells; experiment: Cell viability, hexosaminidase assay, monotherapy; conditions: for EC50: read-out: EC50 dose of monotherapy
Method: as §1, §2
(§8) For the hexosaminidase assay, media containing QTX125 and the test chemotherapeutic agents was removed, and cells were washed once with PBS. 60 μL of substrate solution (containing: 7.5 mM p-nitrophenol-N-acetyl-beta-D-glucosamide [Sigma N-9376], 0.1 M sodium citrate, pH 5.0 and 0.25% Triton X-100) was added to each well and cells were incubated at 37° C. for at least 1 hour. Incubating cells in this manner causes the substrate solution to become bright yellow, at which point 90 μL of developer solution (containing 50 mM Glycine pH 10.4 and 5 mM EDTA) was added to each well. Absorbance at 410 nm was recorded using a plate reader.
as §4, §5, §6, §7

[7] = tested on: Hep-G2 hepatic cancer cells; experiment: Cell viability, hexosaminidase assay, monotherapy; conditions: for EC50: HepG2, 72 h, read-out: EC50 dose of monotherapy; for percentage (%) cell viabilities: 72 hours of high-dose monotherapy (Table 2: QTX125 5, sorafenib 100, gemcitabine 100, bortezomib 1 μM)
Method: as §1, §2, §8, §4, §5, §6, §7

[8] = tested on: MiaPaCa-2 pancreatic cancer cells; experiment: Cell viability, hexosaminidase assay, monotherapy; conditions: for EC50: MIA PaCa-2, 72 h, read-out: EC50 dose of monotherapy; for percentage (%) cell viabilities: 72 hours of high-dose monotherapy (Table 2: QTX125 100, sorafenib 100, gemcitabine 100, bortezomib 1 μM)
Method: as §1, §2, §8, §4, §5, §6, §7

[9] = tested on: Panc-1 pancreatic cancer cells; experiment: Cell viability, hexosaminidase assay, monotherapy; conditions: for EC50: read-out: EC50 dose of monotherapy
Method: as §1, §2, §8, §4, §5, §6, §7

[10] = tested on: SK-OV-3 ovarian cancer cells; experiment: Cell viability, hexosaminidase assay, monotherapy; conditions: for EC50: read-out: EC50 dose of monotherapy
Method: as §1, §2, §8, §4, §5, §6, §7

[11] = Homo sapiens, 72 hours of high-dose monotherapy (Table 2: QTX125 1, sorafenib 100, gemcitabine 10, bortezomib 1 μM), read-out: percentage (%) cell viabilities
[12] = Homo sapiens, HepG2, 72 hours of high-dose monotherapy (Table 2: QTX125 5, sorafenib 100, gemcitabine 100, bortezomib 1 μM), read-out: percentage (%) cell viabilities
[13] = Homo sapiens, MIA PaCa-2, 72 hours of high-dose monotherapy (Table 2: QTX125 100, sorafenib 100, gemcitabine 100, bortezomib 1 μM), read-out: percentage (%) cell viabilities
[14] = Homo sapiens, 72 hours of high-dose monotherapy (Table 2: QTX125 100, sorafenib 100, gemcitabine 100, bortezomib 1 μM), read-out: percentage (%) cell viabilities
[15] = Homo sapiens, 72 hours of high-dose monotherapy (Table 2: QTX125 10, sorafenib 100, gemcitabine 10, bortezomib 1 μM), read-out: percentage (%) cell viabilities
[16] = high-dose monotherapy, 72 hours
[17] = 72 hours of high-dose monotherapy (Table 2: QTX125 1, sorafenib 100, gemcitabine 10, bortezomib 1 μM)
[18] = 72 hours of high-dose monotherapy (Table 2: QTX125 100, sorafenib 100, gemcitabine 100, bortezomib 1 μM)
[19] = 72 hours of high-dose monotherapy (Table 2: QTX125 10, sorafenib 100, gemcitabine 10, bortezomib 1 μM)

| EC50 ([1]; Homo sapiens) [µM] | EC50 ([2]; Homo sapiens) [µM] | EC50 ([3]; Homo sapiens) [µM] | EC50 ([4]; Homo sapiens) [µM] | EC50 ([5]; Homo sapiens) [µM] | EC50 ([6]; Homo sapiens, 72 h) [µM] | EC50 ([7]; Homo sapiens) [µM] | EC50 ([8]; Homo sapiens) [µM] | EC50 ([9]; Homo sapiens, 72 h) [µM] | EC50 ([10]; Homo sapiens, 72 h) [µM] | Structure (SMILES) | percentage (%) cell viabilities [1, 17] [%] | percentage (%) cell viabilities [2] [%] | percentage (%) cell viabilities [3] [%] | percentage (%) cell viabilities [4, 18] [%] | percentage (%) cell viabilities [5, 19] [%] | percentage (%) cell viabilities [6, 17] [%] | percentage (%) cell viabilities [7] [%] | percentage (%) cell viabilities [8] [%] | percentage (%) cell viabilities [9, 18] [%] | percentage (%) cell viabilities [10, 19] [%] | further results |
| --- | --- | --- | --- | --- | --- | --- | --- | --- | --- | --- | --- | --- | --- | --- | --- | --- | --- | --- | --- | --- | --- |
| 0.0079 ± 0.0004 | 0.016 ± 0.0007 | 0.013 ± 0.0005 | 0.0062 | 0.007 ± 0.001 | 0.0066 ± 0.0005 | 0.016 ± 0.001 | 0.0086 ± 0.0005 | 0.0093 ± 0.0008 | 0.0068 ± 0.0004 | CC(C)C[C@H](NC(=O)[C@H](Cc1ccccc1)NC(=O)c1cnccn1)B(O)O [bortezomib] |  |  |  |  |  |  |  |  |  |  | viability at 1 µM [1, 11]: 0%; viability at 1 µM [2, 12]: 0%; viability at 1 µM [3, 13]: 0%; viability at 1 µM [4, 14]: 0%; viability at 1 µM [5, 15]: 0%; viability at 1 µM [6, 11]: 4.9%; viability at 1 µM [7, 12]: 8.8%; viability at 1 µM [8, 13]: 4.1%; viability at 1 µM [9, 14]: 3%; reduction of the population of viable cells [9, 16]: 97%; viability at 1 µM [10, 15]: 9.3% |
|  |  | 0.026 |  |  |  |  | 0.033 |  |  | Nc1ccn([C@@H]2O[C@H](CO)[C@@H](O)C2(F)F)c(=O)n1 [gemcitabine] | 1.9 | 24 | 24 | 8.5 | 38 | 20 | 54 | 47 | 62 | 50 | reduction of the population of viable cells [1, 16]: more than 98%; EC50 dose of monotherapy ([6]; 72 h): resistant; EC50 dose of monotherapy ([7]; 72 h): resistant; EC50 dose of monotherapy ([9]; 72 h): resistant; EC50 dose of monotherapy ([10]; 72 h): resistant |
| 4 ± 0.6 | 0.62 ± 0.16 |  | 7.2 ± 0.8 | 17 ± 2.8 | 3.6 ± 0.5 | 2.7 | 6.8 ± 0.9 | 7.4 ± 1 | 12.7 ± 1.7 | CNC(=O)c1cc(Oc2ccc(NC(=O)Nc3ccc(Cl)c(C(F)(F)F)c3)cc2)ccn1 [sorafenib] | 0.0 | 0.0 | 0.0 | 0.0 | 0.0 | 2.4 | 1.8 | 4.7 | 4.4 | 2.3 | reduction of the population of viable cells [7, 16]: more than 98% |
